Laboratory results taken from article PMC4302234, “Multifunctional peptides derived from an egg yolk protein hydrolysate: isolation and characterization” (Amino Acids, 2014).
“And” between values parts separate entries of the source, which are not always exact repeats. Equal entries are not always repeated. No end group written: not given here.

Experiments:
[1] = molecular target: α-Glucosidase from Saccharomyces cerevisiae (Saccharomyces cerevisiae, UniProt P53341); assay: α-Glucosidase inhibitory activity (pNPG substrate); type: biochemical; details: synthetic peptides, mean n = 3; for IC50: read-out: Enzyme inhibitory activity (IC50) α-Glucosidase (converted)
Description: The α-glucosidase inhibition assay was performed according to the method of Yu et al. ([2011]). α-Glucosidase from Saccharomyces cerevisiae (Sigma G0660) hydrolyzes the substrate—p-nitrophenyl glucopyranoside (pNPG) (Sigma N1377) and the thus produced p-nitrophenol can be measured spectrophotometrically. 5 µL of the α-glucosidase solution (10 U/mL, in 0.1 M potassium phosphate buffer, pH 6.8) was premixed with 10 µL of the sample solution at different concentrations (in 10 % DMSO) in 620 µL of 0.1 M potassium phosphate buffer (pH 6.8). Following incubation at 37.5 °C for 20 min, 10 µL of p-nitrophenyl glucopyranoside (pNPG 10 mM) as substrate was added to the mixture to start the reaction and was then incubated at 37.5 °C for 30 min, followed by addition of 650 µL of 1 M Na2CO3 solution to terminate the reaction. The amount of released product (p-nitrophenol) was measured at λ = 410 nm. The IC50 value was defined as the concentration of inhibitor required to inhibit 50 % of α-glucosidase activity under assay conditions.

[2] = molecular target: T1, DPP-4 from porcine kidney (Sus scrofa, UniProt P22411); assay: Dipeptidyl peptidase-4 (DPP-4) inhibitory activity (Gly-Pro-p-nitroanilide); type: biochemical; details: synthetic peptides, mean n = 3; for IC50: read-out: Enzyme inhibitory activity (IC50) DPP-4 (converted)
T1 construct: DPP-4 from porcine kidney was purchased from Sigma (D7052); purchased Sigma D7052; host or cells: porcine kidney tissue
Description: DPP-4 inhibitory activity (IC50) was determined using a modified method of Lacroix and Li-Chan (2013). DPP-4 from porcine kidney was purchased from Sigma (D7052). The lyophilized peptide fractions were re-suspended in 0.1 M Tris–HCl buffer, pH 8.0. The test sample (25 μL) was preincubated with an equal volume of the substrate Gly-Pro-p-nitroanilide (1.6 mM) at 37 °C for 10 min. Afterwards, 50 μL of DPP-4 (0.01 U/mL, in 0.1 M Tris–HCl buffer, pH 8.0) was added and the mixture was incubated at 37 °C for 60 min. The reaction was stopped by the addition of 100 μL of 1 M sodium acetate buffer, pH 4.0. The released p-nitroanilide as a hydrolysis product was measured at λ = 405 nm.
The IC50 value was defined as the concentration of inhibitor required to inhibit 50 % of DPP-4 activity under assay conditions.

[3] = molecular target: T2, ACE (EC 3.4.15.1; from rabbit lung) (Oryctolagus cuniculus, UniProt P12822); assay: ACE inhibitory activity (HHL substrate, spectrophotometric); type: biochemical; details: synthetic peptides; mean n = 3; read-out: Enzyme inhibitory activity (IC50) ACE (converted)
T2 construct: The ACE (EC 3.4.15.1; from rabbit lung, Sigma, A6778); purchased Sigma A6778; host or cells: rabbit lung tissue
T2 sequence (P12822 34-1310): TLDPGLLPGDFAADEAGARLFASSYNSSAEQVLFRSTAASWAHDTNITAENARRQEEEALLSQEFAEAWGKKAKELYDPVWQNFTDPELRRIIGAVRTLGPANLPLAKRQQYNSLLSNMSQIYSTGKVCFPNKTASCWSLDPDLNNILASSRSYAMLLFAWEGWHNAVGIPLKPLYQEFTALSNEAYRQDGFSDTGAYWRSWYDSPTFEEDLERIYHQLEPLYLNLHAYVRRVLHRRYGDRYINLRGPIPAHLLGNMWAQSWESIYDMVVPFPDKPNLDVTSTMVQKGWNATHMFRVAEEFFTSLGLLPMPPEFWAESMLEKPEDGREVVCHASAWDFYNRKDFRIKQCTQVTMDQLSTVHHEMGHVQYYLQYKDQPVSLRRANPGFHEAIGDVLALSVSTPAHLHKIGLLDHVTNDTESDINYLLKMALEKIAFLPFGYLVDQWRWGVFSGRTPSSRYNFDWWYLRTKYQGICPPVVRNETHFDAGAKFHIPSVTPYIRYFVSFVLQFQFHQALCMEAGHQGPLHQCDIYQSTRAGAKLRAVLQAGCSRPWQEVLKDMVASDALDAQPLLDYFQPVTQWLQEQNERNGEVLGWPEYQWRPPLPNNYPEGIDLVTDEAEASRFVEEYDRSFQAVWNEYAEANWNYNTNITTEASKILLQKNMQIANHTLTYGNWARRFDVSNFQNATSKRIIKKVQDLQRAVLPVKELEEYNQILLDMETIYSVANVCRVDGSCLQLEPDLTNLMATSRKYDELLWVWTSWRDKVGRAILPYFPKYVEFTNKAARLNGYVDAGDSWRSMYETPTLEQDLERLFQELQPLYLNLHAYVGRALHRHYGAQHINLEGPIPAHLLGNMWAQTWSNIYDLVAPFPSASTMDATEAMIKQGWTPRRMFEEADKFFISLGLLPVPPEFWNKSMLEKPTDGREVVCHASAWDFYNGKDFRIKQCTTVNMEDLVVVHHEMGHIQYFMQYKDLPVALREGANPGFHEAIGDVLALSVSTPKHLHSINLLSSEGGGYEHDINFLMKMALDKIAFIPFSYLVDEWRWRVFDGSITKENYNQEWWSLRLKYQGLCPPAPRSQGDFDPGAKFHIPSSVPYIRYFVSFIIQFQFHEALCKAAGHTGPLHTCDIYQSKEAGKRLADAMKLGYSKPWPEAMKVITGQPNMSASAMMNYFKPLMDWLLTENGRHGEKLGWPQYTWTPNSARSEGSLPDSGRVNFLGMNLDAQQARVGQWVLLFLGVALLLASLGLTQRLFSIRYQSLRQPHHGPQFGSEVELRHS
Description: The ACE (EC 3.4.15.1; from rabbit lung, Sigma, A6778) inhibitory activity of hydrolysate and peptide fractions was measured spectrophotometrically according to Miguel et al. ([2004]). A hydrolysate solution (40 µL) mixed with a Hippuryl-His-Leu (HHL) (Sigma H4884) solution (5 mM in 100 mM potassium phosphate containing 300 mM sodium chloride, pH 8.3) as substrate was preincubated at 37 °C for 5 min, and the reaction was initiated by adding 20 µL (2 mU) of ACE solution and incubating for 30 min at the same temperature. The enzymatic reaction was halted by the addition of 150 µL of 1 M HCl. The liberated hippuric acid was extracted using 1 mL of ethyl acetate and vigorous shaking, after which 750 µL of the upper layer was transferred into a test tube and evaporated in a vacuum. The hippuric acid left in the tubes was re-dissolved in 800 µL of distilled water and the absorbance was measured at λ = 228 nm. All samples were tested in three replications. The inhibition activity was calculated using the following equation:
Inhibition activity (%) = [(A − B)/A] × 100 %
where A is the reaction blank, of which the mixture contained the same volume of the buffer solution instead of the ACE inhibitor sample; B is the reaction in the presence of both ACE and its inhibitor. The IC50 value was estimated from a dose–response curve of an inhibitor versus the ACE activity.

[4] = molecular target: α-glucosidase; details: peptide from ovalbumin; ref Yu et al. [2012]; read-out: α-glucosidase inhibitory activity IC50; cited from earlier work
[5] = Fe(II) ion chelation (ferrozine); details: synthetic peptides; mean n = 3
Description: Chelation of iron ions by hydrolysates was estimated by the method of Xu et al. ([2007]) with modifications. A 250 μL sample was mixed with 1,250 μL H2O and 110 μL 1 mM FeCl2. After 2 min, 1 mL of 500 μM ferrozine (Sigma 160601) aqueous solution was added and the mixture was allowed to react for 10 min. The absorbance of ferrous iron–ferrozine complex was measured spectrophotometrically at λ = 562 nm. A known concentration of FeCl2 (0–20 μg) was used to generate a standard curve and the ability to chelate iron ions was expressed as μg Fe^2+/mg protein.

[6] = Antioxidant activity as ability to scavenge DPPH free radicals; details: synthetic peptides; mean n = 3
Description: The antioxidant activity of the obtained hydrolysates was assessed on the basis of the radical scavenging effect of the stable 1,1-diphenyl-2-picrylhydrazyl [DPPH (Sigma, D21140-0)]—free radical activity according to Yen and Chen ([1995]), with minor modifications. The tested samples were dissolved in water to a final volume of 1 mL and mixed with 1 mL of ethanol (98 %). The reaction was started by adding 0.5 mL of […] DPPH in ethanol. The mixtures were left for 30 min at room temperature and the absorbance of the resulting solutions was measured at 517 nm. For calibration, aqueous solutions of known Trolox concentrations ranging from 2 to 20 μg (able to scavenge 500 μL of 0.3 mM DPPH radical solution) were used. Radical scavenging activity of the peptides was expressed as µM troloxeq/mg protein.

[7] = FRAP method (ferric reducing antioxidant power); details: synthetic peptides; mean n = 3
Description: The ferric reducing antioxidant power (FRAP) method was used to determine the antioxidative capacity of hydrolysates according to Benzie and Strain ([1996]). 3 mL of FRAP working solution [300 mM acetate buffer pH 3.6; 10 mM 2,4,6,tripyridyl-s-triazine (TPTZ) (Fluka, 93285) and 20 mM FeCl3 × 6 H2O (10:1:1 v/v)] was mixed with 1 mL of the sample. After 10 min of reaction, the absorbance was measured at λ = 593 nm. An aqueous solution of known Fe(II) concentration was used for calibration (in the range from 100 to 1,000 μg). Results were expressed as μg Fe^2+/mg protein.

T1 sequence (P22411 whole entry): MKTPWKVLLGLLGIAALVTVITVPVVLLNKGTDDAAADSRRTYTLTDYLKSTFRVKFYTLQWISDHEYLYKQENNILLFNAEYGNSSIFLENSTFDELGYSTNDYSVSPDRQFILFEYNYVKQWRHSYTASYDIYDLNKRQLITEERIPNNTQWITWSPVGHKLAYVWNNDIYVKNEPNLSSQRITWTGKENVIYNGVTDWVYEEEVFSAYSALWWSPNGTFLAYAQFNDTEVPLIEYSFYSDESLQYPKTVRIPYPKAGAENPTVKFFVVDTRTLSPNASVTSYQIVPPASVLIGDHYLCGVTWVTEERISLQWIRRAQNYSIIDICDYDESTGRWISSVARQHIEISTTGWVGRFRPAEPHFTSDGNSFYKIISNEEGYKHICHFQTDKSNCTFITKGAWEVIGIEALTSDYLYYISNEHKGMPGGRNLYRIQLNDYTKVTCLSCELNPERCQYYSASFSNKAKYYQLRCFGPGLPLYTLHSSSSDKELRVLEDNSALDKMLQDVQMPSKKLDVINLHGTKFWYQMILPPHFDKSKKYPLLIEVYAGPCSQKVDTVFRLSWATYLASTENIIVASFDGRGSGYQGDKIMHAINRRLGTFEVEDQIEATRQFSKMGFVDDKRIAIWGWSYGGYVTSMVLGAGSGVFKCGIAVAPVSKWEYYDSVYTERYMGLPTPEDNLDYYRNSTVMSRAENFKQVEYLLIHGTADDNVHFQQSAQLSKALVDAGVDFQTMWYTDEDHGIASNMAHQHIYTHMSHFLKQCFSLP
Chain of α-Glucosidase from Saccharomyces cerevisiae (P53341 whole entry): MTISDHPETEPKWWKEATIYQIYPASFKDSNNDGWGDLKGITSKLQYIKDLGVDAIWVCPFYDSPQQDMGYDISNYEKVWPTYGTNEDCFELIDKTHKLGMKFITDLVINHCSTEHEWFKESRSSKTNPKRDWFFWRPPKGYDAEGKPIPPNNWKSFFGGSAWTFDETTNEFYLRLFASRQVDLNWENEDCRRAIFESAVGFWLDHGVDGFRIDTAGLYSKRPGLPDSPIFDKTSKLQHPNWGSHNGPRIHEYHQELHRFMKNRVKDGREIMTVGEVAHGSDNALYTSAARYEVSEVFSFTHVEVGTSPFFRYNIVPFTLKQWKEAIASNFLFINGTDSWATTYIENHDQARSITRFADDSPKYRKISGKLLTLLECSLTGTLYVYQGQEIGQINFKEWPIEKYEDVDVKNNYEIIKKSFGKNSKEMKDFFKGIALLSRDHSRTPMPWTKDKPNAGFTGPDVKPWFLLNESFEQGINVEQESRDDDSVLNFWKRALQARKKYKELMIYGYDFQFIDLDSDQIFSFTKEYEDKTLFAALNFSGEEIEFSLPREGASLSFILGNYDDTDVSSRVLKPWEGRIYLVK

| Substance | IC50 [1] [µM] | IC50 [2] [µM] | IC50 [3] [µM] | IC50 [4] [µM] | Enzyme inhibitory activity (IC50) α-Glucosidase [1] | Antioxidant activity CHEL. [5] [b µg Fe^2+/mg] | Enzyme inhibitory activity (IC50) DPP-4 [2] | Antioxidant activity DPPH [6] | Antioxidant activity FRAP [7] |
| --- | --- | --- | --- | --- | --- | --- | --- | --- | --- |
| YINQMPQKSRE [YINQMPQKSRE] | 1220 | 160 | 7.25 |  |  |  |  |  |  |
| KLPGF |  |  |  | 59.5 |  |  |  |  |  |
| YINQMPQKSREA [YINQMPQKSREA] | 310 | 243 | 8.6 |  |  |  |  |  |  |
| YIEAVNKVSPRAGQF-OH [YIEAVNKVSPRAGQF] |  |  | 5.6 |  | no impact | 25.2 | no impact | 2.2 µM Troloxeq/mg and 2.2c µM Troloxeq/mg | 61.0 µg Fe^2+/mg and 61.0b µg Fe^2+/mg |
| VTGRFAGHPAAQ [VTGRFAGHPAAQ] | 302 | 1160 | 22.5 |  |  |  |  |  |  |
